Measured values taken from patent US20240390487A1, “TLR AGONISTS FOR REDUCING ACTIVATION-INDUCED PD-1 EXPRESSION ON T CELLS AND METHODS OF USE” (WISCONSIN ALUMNI RESEARCH FOUNDATION, priority 2016, published 2024).

Key:
[1] = test system: ovalbumin-expressing E.G7 cells; test: Ovalbumin tumor treatment study: peptide immunization with or without TLR agonist; type: in vivo, mice; conditions: for anti-tumor effect of peptide immunization with TLR agonist: OVA or FT peptide with TLR agonist versus peptide alone, E.G7 tumors, OT-1 transfer; for LAG-3 expression on CD8+ TIL / PD-1 expression on CD8+ TIL / PD-L1 expression on tumor cells / number of CD8+ tumor-infiltrating lymphocytes: tumors at necropsy; for anti-tumor efficacy of TLR ligand adjuvant alone: with non-specific peptide, no antigen-specific T-cell activation
Protocol: OT-1 T cells were then adoptively transferred and the following day were immunized with SIINFEKL (SEQ ID NO:1, OVA) or FT peptide (SEQ ID NO:2) alone or with TLR1/2 or TLR7 agonist. Other groups were immunized with 100 μg anti-PD-1 antibody delivered the following day. […] This anti-tumor effect was not observed with TLR agonist treatment alone (FIG. 22). […] This was associated with a reduced PD-1 (but not LAG-3) expression on CD8+ TIL (FIG. 17C).
Ovalbumin tumor treatment studies: 10^6 ovalbumin-expressing E.G7 PD-L 1^high cells were injected subcutaneously into 6- to 10-week old female B6 mice. Ten to fifteen days post injection, when tumors were palpable and similarly sized (˜0.2 cm^3), 2×10^6 naïve OT-1 CD8+ T cells were adoptively transferred to each mouse as described above. The following day mice were immunized subcutaneously with 100 μg of an individual peptide (SIINFEKL (SEQ ID NO:1) or variant, LifeTein) in PBS, with or without TLR agonists as described above. In the group receiving PD-1 blocking antibody, 100 μg of antibody (clone G4 (52)) was injected intraperitoneally on the day following vaccination. Tumor volume was measured over time using calipers and calculated in cubic centimeters according to the following formula: (π/6)*(long axis)*(short axis)^2. Tumors obtained at necropsy were digested in media containing 1 mg/mL collagenase and 20 μg/mL DNAse I (Sigma, St. Louis, MO) for 1-2 hours at 37° C. and passed through a 100-μm screen to obtain a single-cell suspension. Tumor cells and tumor-infiltrating lymphocytes (TILs) were stained and analyzed by flow cytometry using the following panel: CD3-FITC (BD 555274), CD4-BUV395 (BD 563790), CD8-BUV805 (BD 564920), LAG-3-BV711 (BD 563179), PD1-PECF594 (BD 562523), PDL1-PECy7 (BD 558017), 41BB-PerCPeF710) (eBioscience 46-1371-82), CD45-BV510 (BD 563891) and Live/Dead Ghost dye 780 (Tonbo, San Diego, CA 13-0865-T100) or corresponding fluorescently labeled IgG controls.

[2] = test system: purified OT-1 CD8+ T cells; test: In vitro co-culture / conditioned medium experiments with APC and OT-1 CD8+ T cells; type: cell-based, mice; conditions: purified DC or B cells pre-treated with TLR agonist, SIINFEKL, 24 hours
Protocol: FIGS. 14A-14D. Changes in PD-1 expression following TLR stimulation are mediated by IL-12 secreted from APCs. Panel A: Purified OT-1 T cells (T), B cells (B), or dendritic cells (DC) were activated with SIINFEKL peptide (SEQ ID NO:1, OVA) or with a non-specific peptide (NS) in the presence of either TLR1/2 (TLR1/2) agonist, TLR7 agonist (TLR7), or media alone. After 24 hours, cells were washed and co-cultured with naïve purified OT-1 CD8+ T cells for an additional 24 hours and then assessed for expression of the indicated surface receptors (4-1BB, CD3, PD-1, LAG3, CTLA-4, and TIM3) by flow cytometry. Shown is the MFI for each marker, with samples assessed in triplicate. Panel B: Purified DC were stimulated in the presence of TLR1/2 agonist, TLR7 agonist, or media alone. […] After 24 hours, cells were assessed for expression of the indicated surface receptors (4-1BB, PD-1, LAG3, and CTLA-4) by flow cytometry. Shown is mean and standard error of the MFI for each marker, with samples assessed in triplicate. […] Culture supernatant was then evaluated for the presence of IL12 p70 by ELISA. […] After 24 hours, cells were assessed for expression of the indicated surface receptors (4-1BB, PD-1, LAG3, and CTLA-4) by flow cytometry. Shown is mean and standard error of the MFI for each marker, with samples assessed in triplicate and are representative of two similar experiments. […]

CD8+ OT-1 T cells = conditions: for Eomesodermin (EOMES gene) expression / expression of genes associated with T-cell regulation (including PD-1 and IL-10): 24 to 72 hours, versus peptide alone
Protocol: CD8+ OT-1 T cells were then purified and evaluated for gene expression changes by RNA sequencing (RNA-seq).
RNA preparation and sequencing: Cells were stimulated in vitro as above, and at the times indicated T cells were isolated via immunomagnetic negative selection (StemCell, Vancouver, Canada 19853), RNA was collected as per the manufacturers instruction (Direct-zol RNA MiniPrep Plus w/TRI Reagent, Zymo Research), treated with DNAse (TURBO DNA-free Kit, Invitrogen), and stored at −80° C. until analysis at the UW-Madison Biotechnology Center. Total RNA was verified for purity and integrity via a NanoDrop2000 Spectrophotometer and Agilent 2100 BioAnalyzer, respectively. Samples that met the Illumina sample input guidelines were prepared using the Illumina® TruSeq® Stranded mRNA Sample Preparation kits (Illumina Inc., San Diego, California, USA). For each library preparation, mRNA was purified from 1000 ng total RNA using poly-T oligo-attached magnetic beads. Subsequently, each poly-A enriched sample was fragmented using divalent cations under elevated temperature. The fragmented RNA was synthesized into double-stranded cDNA using SuperScript II Reverse Transcriptase (Invitrogen, Carlsbad, California, USA) and random primers for first strand cDNA synthesis followed by second strand synthesis using DNA Polymerase I and RNAse H for removal of mRNA. Double-stranded cDNA was purified by paramagnetic beads (Agencourt AMPure XP beads, Beckman Coulter). The cDNA products were incubated with Klenow DNA Polymerase and DNA fragments, ligated to Illumina adapters, and purified by paramagnetic beads. Adapter ligated DNA was amplified in a Linker Mediated PCR reaction (LM-PCR) for 11 cycles using Phusion™ DNA Polymerase and Illumina's PE genomic DNA primer set and then purified by paramagnetic beads. Quality and quantity of the finished libraries were assessed using an Agilent DNA1000 chip (Agilent Technologies. Inc., Santa Clara, CA, USA) and Qubit® dsDNA HS Assay Kit (Invitrogen, Carlsbad, California, USA), respectively. Libraries were standardized to 2 μM. Cluster generation was performed using standard Cluster Kit (v3) and the Illumina Cluster Station. Single 100 bp sequencing was performed, using standard SBS chemistry (v4) on an Illumina HiSeq2500 sequencer. Images were analyzed using the standard Illumina Pipeline, version 1.8.2.
RNA sequencing data analysis: Illumina sequencing reads were adapter and quality trimmed using the Skewer trimming program. Quality reads were subsequently aligned to the annotated reference genome using the STAR aligner (43). Quantification of expression for each gene was calculated by RSEM (44), the expected read counts from RSEM were filtered for low/empty values and used for differential gene expression analysis using DESeq2 (45). All remaining genes from the pairwise comparisons were analyzed using Gene Set Enrichment Analysis (GSEA) (46, 47) to identify pathways (based on GO terms (c5.all.v6) from the Molecular Signatures Database (MSigDB (48)) as well as custom gene sets involved in TLR1/2 versus TLR7 ligand activation. GSEA was performed by calculating a ranked vector as log2 fold-change. Analysis was performed using R 3.3.1 (49) and Bioconductor 2.32.0 (50). Venn diagrams were generated using the VennDiagram package.

| Compound | anti-tumor effect of peptide immunization with TLR agonist [1] | LAG-3 expression on CD8+ TIL [1] | PD-1 expression on CD8+ TIL [1] | PD-L1 expression on tumor cells [1] | number of CD8+ tumor-infiltrating lymphocytes [1] | anti-tumor efficacy of TLR ligand adjuvant alone [1] | PD-1 expression on OT-1 T cells activated with TLR-agonist-treated APC [2] | expression of genes associated with Th1-biased cytotoxic effector function (IFNγ, TNFα, granzymes A-C, perforin, T-Bet) (CD8+ OT-1 T cells) | Eomesodermin (EOMES gene) expression (CD8+ OT-1 T cells) | expression of genes associated with T-cell regulation (including PD-1 and IL-10) (CD8+ OT-1 T cells) |
| --- | --- | --- | --- | --- | --- | --- | --- | --- | --- | --- |
| Pam3CSK4 | greater anti-tumor effect | not | reduced | reduced | greater number | do not have significant anti-tumor efficacy | reduced | induced | reduced | reduced |
| CCNCc1nc2c(N)nc3ccccc3c2n1CC(C)(C)O [Gardiquimod] | greater anti-tumor effect | not | reduced | reduced | greater number | do not have significant anti-tumor efficacy | reduced | induced | reduced | reduced |
